Active and inactive are the calls of the source. The calls are words filed in the database; no cut-off is given here.
Columns and labels:
[1] = target: P2Y purinoceptor 2 (Homo sapiens) (UniProt P41231); assay: Activity at P2Y2 receptor expressed in HEK293 cells at 10 uM to 1 nM; assay type: cell-based
[2] = target: P2Y purinoceptor 4 (Homo sapiens) (UniProt P51582); assay: Agonist activity at P2Y4 receptor expressed in HEK293 cells at 10 uM to 1 nM; assay type: functional, cell-based
[3] = target: P2Y purinoceptor 1 (Homo sapiens) (UniProt P47900); assay: Activity at P2Y1 expressed in HEK293 cells at 10 uM to 1 nM; assay type: cell-based
Chain of P2Y purinoceptor 1 (Homo sapiens) (P47900 whole entry): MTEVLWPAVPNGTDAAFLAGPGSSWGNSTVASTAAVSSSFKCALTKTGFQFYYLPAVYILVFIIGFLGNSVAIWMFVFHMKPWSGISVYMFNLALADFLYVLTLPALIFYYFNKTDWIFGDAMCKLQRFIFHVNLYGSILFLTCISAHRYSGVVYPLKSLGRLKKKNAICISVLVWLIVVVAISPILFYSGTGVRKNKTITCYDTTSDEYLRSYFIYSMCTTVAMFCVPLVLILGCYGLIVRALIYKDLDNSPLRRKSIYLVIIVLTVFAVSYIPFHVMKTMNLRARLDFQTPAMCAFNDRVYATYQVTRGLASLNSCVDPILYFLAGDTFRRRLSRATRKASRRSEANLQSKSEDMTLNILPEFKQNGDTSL

[4] = target: T1, P2X purinoceptor 7 (Rattus norvegicus) (UniProt Q64663); assay: Antagonist activity at P2X7R in BzATP-stimulated rat spinal cord assessed as decrease in fluorescent propidium iodide dye uptake at 1 uM; assay type: functional
T1 sequence (whole entry): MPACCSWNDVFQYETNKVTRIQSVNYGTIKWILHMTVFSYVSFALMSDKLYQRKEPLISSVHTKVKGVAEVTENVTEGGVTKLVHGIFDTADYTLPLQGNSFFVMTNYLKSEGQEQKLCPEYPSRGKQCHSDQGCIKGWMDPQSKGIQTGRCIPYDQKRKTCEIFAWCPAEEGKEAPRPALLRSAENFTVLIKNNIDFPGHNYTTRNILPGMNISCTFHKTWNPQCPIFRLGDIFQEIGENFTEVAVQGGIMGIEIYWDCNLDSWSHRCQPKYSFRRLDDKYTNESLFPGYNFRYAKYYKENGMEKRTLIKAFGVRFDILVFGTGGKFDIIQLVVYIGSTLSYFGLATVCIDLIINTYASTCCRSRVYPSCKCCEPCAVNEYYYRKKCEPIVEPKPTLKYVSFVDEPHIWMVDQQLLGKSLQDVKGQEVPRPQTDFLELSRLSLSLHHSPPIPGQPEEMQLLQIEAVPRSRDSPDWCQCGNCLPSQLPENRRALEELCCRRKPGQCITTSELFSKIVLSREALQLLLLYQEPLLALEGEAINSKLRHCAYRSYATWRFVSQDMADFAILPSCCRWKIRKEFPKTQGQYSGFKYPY

Chain of P2Y purinoceptor 2 (Homo sapiens) (P41231 whole entry): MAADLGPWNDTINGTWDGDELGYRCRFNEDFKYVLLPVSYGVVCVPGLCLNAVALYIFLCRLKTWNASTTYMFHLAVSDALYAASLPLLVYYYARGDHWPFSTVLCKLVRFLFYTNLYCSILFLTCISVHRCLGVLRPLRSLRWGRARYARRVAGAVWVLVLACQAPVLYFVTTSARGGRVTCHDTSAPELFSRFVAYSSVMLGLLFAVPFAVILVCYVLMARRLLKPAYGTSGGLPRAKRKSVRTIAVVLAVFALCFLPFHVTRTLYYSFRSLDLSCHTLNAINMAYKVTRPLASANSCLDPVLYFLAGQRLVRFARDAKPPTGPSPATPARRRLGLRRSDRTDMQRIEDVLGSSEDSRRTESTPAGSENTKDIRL
Chain of P2Y purinoceptor 4 (Homo sapiens) (P51582 whole entry): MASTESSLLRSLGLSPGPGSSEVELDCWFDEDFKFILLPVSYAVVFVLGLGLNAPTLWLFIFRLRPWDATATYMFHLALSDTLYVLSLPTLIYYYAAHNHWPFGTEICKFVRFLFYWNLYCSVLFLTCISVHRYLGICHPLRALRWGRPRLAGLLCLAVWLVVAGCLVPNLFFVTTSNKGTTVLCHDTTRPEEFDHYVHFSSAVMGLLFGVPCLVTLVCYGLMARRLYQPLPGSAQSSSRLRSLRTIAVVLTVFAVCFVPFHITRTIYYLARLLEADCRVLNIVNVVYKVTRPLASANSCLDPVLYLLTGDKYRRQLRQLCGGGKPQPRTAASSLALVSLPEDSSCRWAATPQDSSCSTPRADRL

| Activity [1] | Activity [2] | Activity [3] | Activity [4] | SMILES |
| --- | --- | --- | --- | --- |
| inactive | inactive | inactive | Active | O=C(NCC12C3C4C5C3C1C5C42)c1ccccc1F (centres undefined) |
| inactive | inactive | inactive | Active | O=C(NCC12C3C4C5C3C1C5C42)c1ccc(F)cc1 (centres undefined) |
| inactive | inactive | inactive | Active | COc1ccc(Cl)c(C(=O)NCC23CC4CC(CC(C4)C2)C3)c1 |
| inactive | inactive | inactive | Active | O=C(NCC12CC3CC(CC(C3)C1)C2)c1ccccc1F |
| inactive | inactive | inactive | Active | COc1ccc(Cl)c(C(=O)NCC23C4C5C6C4C2C6C53)c1 (centres undefined) |
| inactive | inactive | inactive | Active | O=C(NCC12CC3CC(CC(C3)C1)C2)c1ccc(F)cc1 |

— ChEMBL document CHEMBL1157446, “Cubyl amides: novel P2X7 receptor antagonists” (Bioorg Med Chem Lett, 2008)
